Measurements from PubChem BioAssay (NCI).
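Method: 48-hour compound exposure of cells in 96-well plates, five concentrations, linear interpolation of endpoints. TGI: concentration producing complete growth inhibition.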

Columns and labels:
Assay in all cases: NCI tumour cell line growth inhibition, 48 h
NCI-H226 lung = system: NCI-H226 lung
SF-539 CNS = system: SF-539 CNS
NCI-H522 lung = system: NCI-H522 lung
M14 melanoma = system: M14 melanoma
UACC-62 melanoma = system: UACC-62 melanoma
UO-31 renal = system: UO-31 renal
HOP-18 NSCLC = system: HOP-18 NSCLC
MOLT-4 leukemia = system: MOLT-4 leukemia
NCI-H460 lung = system: NCI-H460 lung
RXF-631 renal = system: RXF-631 renal
K-562 leukemia = system: K-562 leukemia
HCT-116 colon = system: HCT-116 colon
DMS 114 small cell lung = system: DMS 114 small cell lung
SR leukemia = system: SR leukemia
XF 498 CNS = system: XF 498 CNS
HCT-15 colon = system: HCT-15 colon
LXFL 529 NSCLC = system: LXFL 529 NSCLC
HT29 colon = system: HT29 colon
KM20L2 colon = system: KM20L2 colon
KM12 colon = system: KM12 colon
IGROV1 ovarian = system: IGROV1 ovarian
HL-60(TB) leukemia = system: HL-60(TB) leukemia
RPMI-8226 leukemia = system: RPMI-8226 leukemia
A498 renal = system: A498 renal
EKVX NSCLC = system: EKVX NSCLC
OVCAR-3 ovarian = system: OVCAR-3 ovarian
SNB-75 CNS = system: SNB-75 CNS
SF-268 CNS = system: SF-268 CNS
SK-MEL-5 melanoma = system: SK-MEL-5 melanoma
MALME-3M melanoma = system: MALME-3M melanoma
SNB-78 CNS = system: SNB-78 CNS
SN12C renal = system: SN12C renal
HOP-62 NSCLC = system: HOP-62 NSCLC
U251 CNS = system: U251 CNS
ACHN renal = system: ACHN renal
A549 NSCLC = system: A549 NSCLC
COLO 205 colon = system: COLO 205 colon
LOX IMVI melanoma = system: LOX IMVI melanoma
SF-295 CNS = system: SF-295 CNS
DLD-1 colon = system: DLD-1 colon
NCI-H23 lung = system: NCI-H23 lung
SNB-19 CNS = system: SNB-19 CNS
HCC-2998 colon = system: HCC-2998 colon
SK-OV-3 ovarian = system: SK-OV-3 ovarian
OVCAR-5 ovarian = system: OVCAR-5 ovarian
M19-MEL melanoma = system: M19-MEL melanoma
RXF 393 renal = system: RXF 393 renal
SW-620 colon = system: SW-620 colon
786-0 renal = system: 786-0 renal
TK-10 renal = system: TK-10 renal
OVCAR-8 ovarian = system: OVCAR-8 ovarian
HOP-92 NSCLC = system: HOP-92 NSCLC
UACC-257 melanoma = system: UACC-257 melanoma
SK-MEL-28 melanoma = system: SK-MEL-28 melanoma
DMS 273 small cell lung = system: DMS 273 small cell lung
CAKI-1 renal = system: CAKI-1 renal
OVCAR-4 ovarian = system: OVCAR-4 ovarian
CCRF-CEM leukemia = system: CCRF-CEM leukemia
SK-MEL-2 melanoma = system: SK-MEL-2 melanoma

`CCCCCCCCCCC(=O)CC(=O)c1c(O)cccc1O` was tested, and the TGI (NCI-H226 lung) was 63.6 µM, the TGI (SF-539 CNS) was greater than 100 µM and the TGI (NCI-H522 lung) was 90.4 µM. It also gave a TGI (M14 melanoma) greater than 100 µM, a TGI (UACC-62 melanoma) greater than 100 µM and a TGI (UO-31 renal) of 85.9 µM. The TGI (HOP-18 NSCLC) was 98.7 µM, the TGI (MOLT-4 leukemia) was 59 µM and the TGI (NCI-H460 lung) was greater than 100 µM. The TGI (RXF-631 renal) was greater than 100 µM, the TGI (K-562 leukemia) was 81.3 µM and the TGI (HCT-116 colon) was 41.8 µM. It also gave a TGI (DMS 114 small cell lung) of 72 µM, a TGI (SR leukemia) greater than 100 µM and a TGI (XF 498 CNS) of 46.2 µM. It also gave a TGI (HCT-15 colon) greater than 100 µM, a TGI (LXFL 529 NSCLC) greater than 100 µM and a TGI (HT29 colon) greater than 100 µM. For the same compound, the TGI (KM20L2 colon) was greater than 100 µM, the TGI (KM12 colon) was greater than 100 µM and the TGI (IGROV1 ovarian) was greater than 100 µM. For the same compound, the TGI (HL-60(TB) leukemia) was 37.3 µM, the TGI (RPMI-8226 leukemia) was 50.2 µM and the TGI (A498 renal) was greater than 100 µM. It also gave a TGI (EKVX NSCLC) greater than 100 µM, a TGI (OVCAR-3 ovarian) of 63.7 µM and a TGI (SNB-75 CNS) greater than 100 µM. It also gave a TGI (SF-268 CNS) greater than 100 µM, a TGI (SK-MEL-5 melanoma) of 72.8 µM and a TGI (MALME-3M melanoma) greater than 100 µM. The TGI (SNB-78 CNS) was greater than 100 µM, the TGI (SN12C renal) was greater than 100 µM and the TGI (HOP-62 NSCLC) was 72.9 µM. The TGI (U251 CNS) was 69.5 µM, the TGI (ACHN renal) was 91.3 µM and the TGI (A549 NSCLC) was greater than 100 µM. The TGI (COLO 205 colon) was greater than 100 µM, the TGI (LOX IMVI melanoma) was 37 µM and the TGI (SF-295 CNS) was greater than 100 µM. The TGI (DLD-1 colon) was greater than 100 µM, the TGI (NCI-H23 lung) was 81.7 µM and the TGI (SNB-19 CNS) was greater than 100 µM. The TGI (HCC-2998 colon) was greater than 100 µM, the TGI (SK-OV-3 ovarian) was greater than 100 µM and the TGI (OVCAR-5 ovarian) was 49.1 µM. It also gave a TGI (M19-MEL melanoma) of 67.1 µM, a TGI (RXF 393 renal) of 72.5 µM and a TGI (SW-620 colon) greater than 100 µM. The TGI (786-0 renal) was greater than 100 µM, the TGI (TK-10 renal) was greater than 100 µM and the TGI (OVCAR-8 ovarian) was greater than 100 µM. The TGI (HOP-92 NSCLC) was 82 µM, the TGI (UACC-257 melanoma) was 96 µM and the TGI (SK-MEL-28 melanoma) was greater than 100 µM. The TGI (DMS 273 small cell lung) was 58.2 µM, the TGI (CAKI-1 renal) was greater than 100 µM and the TGI (OVCAR-4 ovarian) was greater than 100 µM.
With `O=S1c2ccccc2N=C(c2cccc3ccccc23)CC1c1cccc2ccccc12` (stereo not given) the TGI (NCI-H226 lung) was 42.2 µM, the TGI (SF-539 CNS) was 40.6 µM and the TGI (NCI-H522 lung) was 30 µM. For the same compound, the TGI (M14 melanoma) was 28.1 µM, the TGI (UACC-62 melanoma) was 26.4 µM and the TGI (UO-31 renal) was 67.8 µM. For the same compound, the TGI (HOP-18 NSCLC) was 25.2 µM, the TGI (MOLT-4 leukemia) was 55.3 µM and the TGI (NCI-H460 lung) was 40.6 µM. The TGI (RXF-631 renal) was greater than 100 µM, the TGI (K-562 leukemia) was 60.5 µM and the TGI (HCT-116 colon) was 39.3 µM. For the same compound, the TGI (DMS 114 small cell lung) was 34.8 µM, the TGI (SR leukemia) was 49.2 µM and the TGI (XF 498 CNS) was 37.5 µM. For the same compound, the TGI (HCT-15 colon) was 32 µM, the TGI (LXFL 529 NSCLC) was 33.6 µM and the TGI (HT29 colon) was 49.5 µM. For the same compound, the TGI (KM20L2 colon) was greater than 100 µM, the TGI (KM12 colon) was 32 µM and the TGI (IGROV1 ovarian) was 34 µM. It also gave a TGI (HL-60(TB) leukemia) of 30.5 µM, a TGI (RPMI-8226 leukemia) of 50.9 µM and a TGI (A498 renal) of 39.2 µM. It also gave a TGI (EKVX NSCLC) of 84.1 µM, a TGI (OVCAR-3 ovarian) of 40.5 µM and a TGI (SNB-75 CNS) of 49.1 µM. It also gave a TGI (SF-268 CNS) of 57.5 µM, a TGI (SK-MEL-5 melanoma) of 19.9 µM and a TGI (MALME-3M melanoma) of 37.4 µM. It also gave a TGI (SNB-78 CNS) greater than 100 µM, a TGI (SN12C renal) of 30.5 µM and a TGI (HOP-62 NSCLC) greater than 100 µM. The TGI (U251 CNS) was 37.7 µM, the TGI (ACHN renal) was 56.4 µM and the TGI (A549 NSCLC) was 36.7 µM. The TGI (COLO 205 colon) was 37.6 µM, the TGI (LOX IMVI melanoma) was 27.9 µM and the TGI (SF-295 CNS) was 71.2 µM. It also gave a TGI (DLD-1 colon) of 62.8 µM, a TGI (NCI-H23 lung) of 39.1 µM and a TGI (SNB-19 CNS) of 66.7 µM. The TGI (HCC-2998 colon) was 31.8 µM, the TGI (SK-OV-3 ovarian) was greater than 100 µM and the TGI (OVCAR-5 ovarian) was 58.3 µM. It also gave a TGI (M19-MEL melanoma) of 4.33 µM, a TGI (RXF 393 renal) of 38.7 µM and a TGI (SW-620 colon) of 37.5 µM. For the same compound, the TGI (786-0 renal) was 76.6 µM, the TGI (TK-10 renal) was 89.3 µM and the TGI (OVCAR-8 ovarian) was 46.3 µM. It also gave a TGI (CCRF-CEM leukemia) of 49.1 µM, a TGI (UACC-257 melanoma) of 31.2 µM and a TGI (SK-MEL-28 melanoma) of 20.6 µM. It also gave a TGI (SK-MEL-2 melanoma) of 40.9 µM, a TGI (DMS 273 small cell lung) greater than 100 µM and a TGI (CAKI-1 renal) of 71.2 µM. It also gave a TGI (OVCAR-4 ovarian) of 27.8 µM.
